Laboratory results as given in US8648081B2 (Eli Lilly and Company, priority 2011, dated 2014).

Test system: Lone star tick larvae (Amblyomma americanum)
Test: In Vitro Larval Immersion Microassay (LIM)
Settings: read-out: % Efficacy (percent larval mortality)
Experimental: In Vitro Larval Immersion Microassay (LIM)
The larval immersion microassay may be conducted as described in White, et al., J. Med. Entomol. […] Briefly, experimental test articles are formulated in dimethylsulfoxide (DMSO) to prepare a stock solution at a concentration of 10 mM. […] Approximately 30-50 Lone star tick larvae (Amblyomma americanum) are submerged into each well containing experimental test articles. After a 30 minute immersion period, larvae are removed with a wide-bore pipette tip in 0.05 ml of fluid, dispensed into a commercial paper tissue biopsy bag which is sealed at the top with a plastic dialysis clip, inverted and allowed to air dry for 60 minutes. Bags containing larvae are then incubated at approximately 27 degrees Celsius and >90% relative humidity. After 24 hours, bags are opened, live and dead larvae are counted and percent larval mortality is calculated as follows: % Efficacy=(# dead larvae)/(# total larvae)×100.

| SMILES | mortality at 300 µM [%] |
| --- | --- |
| O=C(N[C@@H]1CCNC1=O)c1sc(C2=NOC(c3cc(Cl)cc(Cl)c3)(C(F)(F)F)C2)c2c1CCCC2 (stereo partly drawn) [Example 32, 3-(5-(3,5-dichlorophenyl)-5-(trifluoromethyl)-4,5-dihydroisoxazol-3-yl)-N—((R)-2-oxopyrrolidin-3-yl)-4,5,6,7-tetrahydrobenzo[c]thiophene-1-carboxamide] | ≥ 80 |
| O=C(CNC(=O)c1sc(C2=NOC(c3cc(Cl)cc(Cl)c3)(C(F)(F)F)C2)c2c1CCC2)NCC(F)(F)F (centres unmarked) [Example 36, 3-(5-(3,5-dichloro-phenyl)-5-(trifluoro-methyl)-4,5-dihydro-isoxazol-3-yl)-N-(2-oxo-2-(2,2,2-trifluoroethylamino)ethyl)-5,6-dihydro-4H-cyclopenta[c] thiophene-1-carboxamide] | ≥ 80 |
| O=C(NC1CS(=O)(=O)C1)c1sc(C2=NOC(c3cc(Cl)cc(Cl)c3)(C(F)(F)F)C2)c2c1CCCC2 (centres unmarked) [Example 37, 3-[5-(3,5-Dichloro-phenyl)-5-trifluoro-methyl-4,5-dihydro-isoxazol-3-yl]-4,5,6,7-tetrahydro-benzo[c] thiophene-1-carboxylic acid (1,1-dioxo-thietan-3-yl)-amide] | ≥ 80 |
| O=C1CCCC(NC(=O)c2sc(C3=NOC(c4cc(Cl)cc(Cl)c4)(C(F)(F)F)C3)c3c2CCCC3)C1 (centres unmarked) [Example 38, 3-(5-(3,5-dichloro-phenyl)-5-(trifluoro-methyl)-4,5-dihydro-isoxazol-3-yl)-N-(3-oxocyclohexyl)-4,5,6,7-tetrahydrobenzo [c]thiophene-1-carboxamide] | ≥ 80 |
| O=C(NC1CCS(=O)(=O)CC1)c1sc(C2=NOC(c3cc(Cl)cc(Cl)c3)(C(F)(F)F)C2)c2c1CCCC2 (centres unmarked) [Example 39, 3-[5-(3,5-Dichloro-phenyl)-5-trifluoro-methyl-4,5-dihydro-isoxazol-3-yl]-4,5,6,7-tetrahydro-benzo [c]thiophene-1-carboxylic acid (1,1-dioxo-hexahydro-116-thiopyran-4-yl)-amide] | ≥ 80 |
| O=C(NC1CCN(CC(F)(F)F)C1=O)c1sc(C2=NOC(c3cc(Cl)cc(Cl)c3)(C(F)(F)F)C2)c2c1CCCC2 (centres unmarked) [Example 40, 3-[5-(3,5-Dichloro-phenyl)-5-trifluoro-methyl-4,5-dihydro-isoxazol-3-yl]-4,5,6,7-tetrahydro-benzo[c] thiophene-1-carboxylic acid [2-oxo-1-(2,2,2-trifluoro-ethyl)-pyrrolidin-3-yl]-amide] | ≥ 80 |
| O=C(N[C@@H]1CCNC1=O)c1sc(C2=NOC(c3cc(Cl)cc(Cl)c3)(C(F)(F)F)C2)c2c1CCC2 (stereo partly drawn) [Example 41, 3-(5-(3,5-dichloro-phenyl)-5-(trifluoro-methyl)-4,5-dihydro-isoxazol-3-yl)-N-((R)-2-oxopyrrolidin-3-yl)-5,6-dihydro-4H-cyclopenta[c] thiophene-1-carboxamide] | ≥ 80 |
| N#CCNC(=O)CNC(=O)c1sc(C2=NOC(c3cc(Cl)cc(Cl)c3)(C(F)(F)F)C2)c2c1CCC2 (centres unmarked) [Example 42, N-(2-(cyanomethyl-amino)-2-oxoethyl)-3-(5-(3,5-dichlorophenyl)-5-(trifluoromethyl)-4,5-dihydroisoxazol-3-yl)-5,6-dihydro-4H-cyclopenta[c]thiophene-1-carboxamide] | ≥ 80 |
| C#CCNC(=O)CNC(=O)c1sc(C2=NOC(c3cc(Cl)cc(Cl)c3)(C(F)(F)F)C2)c2c1CCC2 (centres unmarked) [Example 43, 3-(5-(3,5-dichloro-phenyl)-5-(trifluoro-methyl)-4,5-dihydro-isoxazol-3-yl)-N-(2-oxo-2-(prop-2-ynylamino)ethyl)-5,6-dihydro-4H-cyclopenta[c] thiophene-1-carboxamide] | ≥ 80 |
| O=C(CNC(=O)c1sc(C2=NOC(c3cc(Cl)c(Cl)c(Cl)c3)(C(F)(F)F)C2)c2c1CCCC2)NCC(F)(F)F (centres unmarked) [Example 44, N-(2-oxo-2-(2,2,2-trifluoroethylamino)ethyl)-3-(5-(3,4,5-trichlorophenyl)-5-(trifluoromethyl)-4,5-dihydroisoxazol-3-yl)-4,5,6,7-tetrahydrobenzo [c]thiophene-1-carboxamide] | ≥ 80 |
| O=C(N[C@@H]1CCNC1=O)c1sc(C2=NOC(c3cc(Cl)c(Cl)c(Cl)c3)(C(F)(F)F)C2)c2c1CCCC2 (stereo partly drawn) [Example 45, N-((R)-2-oxopyrrolidin-3-yl)-3-(5-(3,4,5-trichlorophenyl)-5-(trifluoromethyl)-4,5-dihydroisoxazol-3-yl)-4,5,6,7-tetrahydrobenzo [c]thiophene-1-carboxamide] | ≥ 80 |
| N#CCNC(=O)CNC(=O)c1sc(C2=NOC(c3cc(Cl)c(Cl)c(Cl)c3)(C(F)(F)F)C2)c2c1CCCC2 (centres unmarked) [Example 46, N-(2-(cyanomethyl-amino)-2-oxoethyl)-3-(5-(3,4,5-trichloro-phenyl)-5-(trifluoro-methyl)-4,5-dihydro-isoxazol-3-yl)-4,5,6,7-tetrahydrobenzo [c]thiophene-1-carboxamide] | ≥ 80 |
| C#CCNC(=O)CNC(=O)c1sc(C2=NOC(c3cc(Cl)c(Cl)c(Cl)c3)(C(F)(F)F)C2)c2c1CCCC2 (centres unmarked) [Example 47, N-(2-oxo-2-(prop-2-ynylamino)ethyl)-3-(5-(3,4,5-trichlorophenyl)-5-(trifluoromethyl)-4,5-dihydroisoxazol-3-yl)-4,5,6,7-tetrahydro-benzo[c]thiophene-1-carboxamide] | ≥ 80 |
| O=C(CNC(=O)c1sc(C2=NOC(c3cc(Cl)c(F)c(Cl)c3)(C(F)(F)F)C2)c2c1CCCC2)NCC(F)(F)F (centres unmarked) [Example 48, 3-(5-(3,5-dichloro-4-fluorophenyl)-5-(trifluoromethyl)-4,5-dihydroisoxazol-3-yl)-N-(2-oxo-2-(2,2,2-trifluoroethyl-amino)ethyl)-4,5,6,7-tetrahydrobenzo [c]thiophene-1-carboxamide] | ≥ 80 |
| O=C(N[C@@H]1CCNC1=O)c1sc(C2=NOC(c3cc(Cl)c(F)c(Cl)c3)(C(F)(F)F)C2)c2c1CCCC2 (stereo partly drawn) [Example 49, 3-(5-(3,5-dichloro-4-fluorophenyl)-5-(trifluoromethyl)-4,5-dihydroisoxazol-3-yl)-N-((R)-2-oxopyrrolidin-3-yl)-4,5,6,7-tetrahydro-benzo[c]thiophene-1-carboxamide] | ≥ 80 |
| N#CCNC(=O)CNC(=O)c1sc(C2=NOC(c3cc(Cl)c(F)c(Cl)c3)(C(F)(F)F)C2)c2c1CCCC2 (centres unmarked) [Example 50, N-(2-(cyanomethyl-amino)-2-oxoethyl)-3-(5-(3,5-dichloro-4-fluorophenyl)-5-(trifluoromethyl)-4,5-dihydroisoxazol-3-yl)-4,5,6,7-tetrahydrobenzo [c]thiophene-1-carboxamide] | ≥ 80 |
| C#CCNC(=O)CNC(=O)c1sc(C2=NOC(c3cc(Cl)c(F)c(Cl)c3)(C(F)(F)F)C2)c2c1CCCC2 (centres unmarked) [Example 51, 3-(5-(3,5-dichloro-4-fluorophenyl)-5-(trifluoromethyl)-4,5-dihydroisoxazol-3-yl)-N-(2-oxo-2-(prop-2-ynylamino)ethyl)-4,5,6,7-tetrahydro-benzo[c]thiophene-1-carboxamide] | ≥ 80 |
| O=C(CNC(=O)c1sc(C2=NOC(c3cc(Cl)c(Cl)c(Cl)c3)(C(F)(F)F)C2)c2c1CCC2)NCC(F)(F)F (centres unmarked) [Example 52, N-(2-oxo-2-(2,2,2-trifluoroethylamino)ethyl)-3-(5-(3,4,5-trichlorophenyl)-5-(trifluoromethyl)-4,5-dihydroisoxazol-3-yl)-5,6-dihydro-4H-cyclopenta[c] thiophene-1-carboxamide] | ≥ 80 |
| O=C(N[C@@H]1CCNC1=O)c1sc(C2=NOC(c3cc(Cl)c(Cl)c(Cl)c3)(C(F)(F)F)C2)c2c1CCC2 (stereo partly drawn) [Example 53, N-((R)-2-oxopyrrolidin-3-yl)-3-(5-(3,4,5-trichlorophenyl)-5-(trifluoromethyl)-4,5-dihydroisoxazol-3-yl)-5,6-dihydro-4H-cyclopenta[c] thiophene-1-carboxamide] | ≥ 80 |
| N#CCNC(=O)CNC(=O)c1sc(C2=NOC(c3cc(Cl)c(Cl)c(Cl)c3)(C(F)(F)F)C2)c2c1CCC2 (centres unmarked) [Example 54, N-(2-(cyanomethyl-amino)-2-oxoethyl)-3-(5-(3,4,5-trichloro-phenyl)-5-(trifluoro-methyl)-4,5-dihydro-isoxazol-3-yl)-5,6-dihydro-4H-cyclo-penta[c]thiophene-1-carboxamide] | ≥ 80 |
| C#CCNC(=O)CNC(=O)c1sc(C2=NOC(c3cc(Cl)c(Cl)c(Cl)c3)(C(F)(F)F)C2)c2c1CCC2 (stereo not drawn) [Example 55, N-(2-oxo-2-(prop-2-ynylamino)ethyl)-3-(5-(3,4,5-trichlorophenyl)-5-(trifluoromethyl)-4,5-dihydroisoxazol-3-yl)-5,6-dihydro-4H-cyclo-penta[c]thiophene-l-carboxamide] | ≥ 80 |
| O=C(NC1CCN(CC(F)(F)F)C1=O)c1sc(C2=NOC(c3cc(Cl)c(Cl)c(Cl)c3)(C(F)(F)F)C2)c2c1CCC2 (centres unmarked) [Example 56, N-(2-oxo-1-(2,2,2-trifluoroethyl)pyrrolidin-3-yl)-3-(5-(3,4,5-trichlorophenyl)-5-(trifluoromethyl)-4,5-dihydroisoxazol-3-yl)-5,6-dihydro-4H-cyclopenta[c] thiophene-1-carboxamide] | ≥ 80 |
| O=C(CNC(=O)c1sc(C2=NOC(c3cc(Cl)c(F)c(Cl)c3)(C(F)(F)F)C2)c2c1CCC2)NCC(F)(F)F (centres unmarked) [Example 57, 3-(5-(3,5-dichloro-4-fluorophenyl)-5-(trifluoromethyl)-4,5-dihydroisoxazol-3-yl)-N-(2-oxo-2-(2,2,2-trifluoroethylamino)ethyl)-5,6-dihydro-4H-cyclopenta[c] thiophene-1-carboxamide] | ≥ 80 |
